Data: patent US6225321A (priority 1997, dated 2001)

Test system: Sprague Dawley rats
Test: Analgesic effect, cold ethanol bath tail flick test, intramuscular, rats
Format: in vivo, rat
Protocol: Sprague Dawley rats(175 to 225 g) were used. Each group consisted of 6 rats and each rats was injected once intramuscularly on the rear leg. […]
The dose for each rat was 25 micromole per kg, intramuscularly.
In the experiment, a circulating cold ethanol bath with a temperature maintained at -20° C. was set up. After dosing, the rat tail(1/3 from the tip) was immersed in the bath. The latency for the rat to flick its tail from the bath was measured to be the nociceptive threshold. The effect of various opium alkaloid preparations can be determined with this test.
The nociceptive effect can be calculated as follows: [formula]
35, 25, 15 minutes before dosing, Male Sprague Dawley rat(175-225 g) was tested to measure the basic response latency. The time to top the experiment was set at 40 seconds to prevent the tail from cold sore. No cold sore were found in 40 sec. Five minutes after the drug was given to the rat, the flick test was performed every 10 minutes or more. […]
(c) Dinalbuphine sebacoyl ester, dose was 7.8125 μ/kg, 31.25 μM/kg, 125 μM/kg.
(d) 50 mg/ml dinalbuphine sebacoyl ester parenteral dosage forms, dinalbuphine sebacoyl ester was prepared in sesame oil.

O=C(CCCCCCCCC(=O)Oc1ccc2c3c1O[C@H]1[C@@H](O)CC[C@@]4(O)[C@@H](C2)N(CC2CCC2)CC[C@]314)Oc1ccc2c3c1O[C@H]1[C@@H](O)CC[C@@]4(O)[C@@H](C2)N(CC2CCC2)CC[C@]314 [sebacoyl dinalbuphine ester]
dose dependence of analgesic effect (FIG. 9, rats, intramuscular, 7.8125, 31.25, 125 μM/kg): proportional to the dose administered | time to which 50% analgesic effect was extended (FIG. 10, intramuscular, 125 μM/kg): 88 h | analgesic effect relative to Nalbuphine hydrochloride (intramuscular): 8.8 times | duration of analgesic effect (rats, intramuscular, dose below 125 μM/kg): 4 to 5 days
